Holding throughout (experiment): Kinobeads competition binding, HeLa Placenta lysate mix
Holding throughout (parameters): endogenous in cells
Common to all, as to conditions: 10 μM free compound

In one assay the target is MAP3K4 (Homo sapiens, UniProt Q9Y6R4). The essentials: (§1)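 Read-out is iTRAQ reporter ion quantification by nano-LC-MS/MS, comparing a lysate aliquot pretreated with 10 μM free compound to a DMSO solvent control. Kinases not bound by free compound were pulled down on beads carrying the immobilized compound, separated by SDS-PAGE and digested with trypsin.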
In a further assay the target is CK2a1 (Homo sapiens, UniProt P68400). The essentials: as §1
The next assay concerns the target BIKE (Homo sapiens, UniProt Q9NSY1). The essentials: as §1
The target in the next assay is T1, TBK1 (Homo sapiens, UniProt Q9UHD2).
T1 sequence (Q9UHD2 1-729): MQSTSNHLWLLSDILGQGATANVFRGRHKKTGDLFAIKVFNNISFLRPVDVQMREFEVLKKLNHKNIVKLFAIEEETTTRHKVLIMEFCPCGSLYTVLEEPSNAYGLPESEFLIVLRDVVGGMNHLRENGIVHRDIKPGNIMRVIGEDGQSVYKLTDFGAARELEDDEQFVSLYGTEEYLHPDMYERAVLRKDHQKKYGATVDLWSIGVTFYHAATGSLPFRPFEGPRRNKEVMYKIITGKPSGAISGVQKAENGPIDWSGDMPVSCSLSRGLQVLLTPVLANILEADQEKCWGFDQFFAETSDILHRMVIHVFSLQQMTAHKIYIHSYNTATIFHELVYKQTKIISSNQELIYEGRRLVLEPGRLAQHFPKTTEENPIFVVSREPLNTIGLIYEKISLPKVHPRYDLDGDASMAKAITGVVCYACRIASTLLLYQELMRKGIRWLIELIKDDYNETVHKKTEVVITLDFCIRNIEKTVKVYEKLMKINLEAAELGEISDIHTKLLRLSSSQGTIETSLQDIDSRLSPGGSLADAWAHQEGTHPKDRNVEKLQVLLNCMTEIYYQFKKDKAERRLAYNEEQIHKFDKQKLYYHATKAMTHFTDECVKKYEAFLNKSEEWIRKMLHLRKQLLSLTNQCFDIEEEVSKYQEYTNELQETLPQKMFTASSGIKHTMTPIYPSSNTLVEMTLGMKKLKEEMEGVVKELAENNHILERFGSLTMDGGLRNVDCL
The essentials:
as §1

A further assay concerns the target LYN (Homo sapiens, UniProt P07948). The essentials:
as §1

In another assay the target is MAP2K1 (Homo sapiens, UniProt Q02750). The essentials: as §1
Another assay has as its target DNAPK (Homo sapiens, UniProt P78527). An outline of the steps:
as §1

The target of another assay is GSK3A (Homo sapiens, UniProt P49840). An outline of the steps:
as §1

Another assay addresses MAP2K6 (Homo sapiens, UniProt P52564). The essentials:
as §1

GSK3A, sequence (P49840 whole entry): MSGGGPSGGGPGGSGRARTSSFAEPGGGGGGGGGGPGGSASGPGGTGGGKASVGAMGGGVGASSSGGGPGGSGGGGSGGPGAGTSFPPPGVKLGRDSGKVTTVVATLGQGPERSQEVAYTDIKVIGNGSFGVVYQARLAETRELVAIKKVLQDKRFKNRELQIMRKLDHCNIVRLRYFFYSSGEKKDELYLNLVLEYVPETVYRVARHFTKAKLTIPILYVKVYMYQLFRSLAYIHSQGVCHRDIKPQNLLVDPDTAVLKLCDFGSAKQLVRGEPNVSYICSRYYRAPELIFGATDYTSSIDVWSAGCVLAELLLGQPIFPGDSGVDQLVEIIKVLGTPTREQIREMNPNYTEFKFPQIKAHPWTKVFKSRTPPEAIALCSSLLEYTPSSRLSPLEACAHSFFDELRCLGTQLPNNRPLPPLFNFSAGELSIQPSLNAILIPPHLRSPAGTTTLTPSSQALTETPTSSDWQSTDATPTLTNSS
CK2a1, sequence (P68400 whole entry): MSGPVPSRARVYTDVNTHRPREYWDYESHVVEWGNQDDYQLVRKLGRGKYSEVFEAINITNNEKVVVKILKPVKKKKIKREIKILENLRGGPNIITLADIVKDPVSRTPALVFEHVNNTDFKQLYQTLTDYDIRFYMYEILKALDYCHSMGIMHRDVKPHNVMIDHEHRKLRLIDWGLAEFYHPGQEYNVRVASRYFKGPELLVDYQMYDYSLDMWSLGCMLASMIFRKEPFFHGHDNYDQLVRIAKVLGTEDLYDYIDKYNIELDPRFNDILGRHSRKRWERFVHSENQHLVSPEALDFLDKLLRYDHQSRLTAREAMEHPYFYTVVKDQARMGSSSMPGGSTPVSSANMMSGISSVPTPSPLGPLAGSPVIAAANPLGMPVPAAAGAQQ
DNAPK, sequence (P78527 whole entry): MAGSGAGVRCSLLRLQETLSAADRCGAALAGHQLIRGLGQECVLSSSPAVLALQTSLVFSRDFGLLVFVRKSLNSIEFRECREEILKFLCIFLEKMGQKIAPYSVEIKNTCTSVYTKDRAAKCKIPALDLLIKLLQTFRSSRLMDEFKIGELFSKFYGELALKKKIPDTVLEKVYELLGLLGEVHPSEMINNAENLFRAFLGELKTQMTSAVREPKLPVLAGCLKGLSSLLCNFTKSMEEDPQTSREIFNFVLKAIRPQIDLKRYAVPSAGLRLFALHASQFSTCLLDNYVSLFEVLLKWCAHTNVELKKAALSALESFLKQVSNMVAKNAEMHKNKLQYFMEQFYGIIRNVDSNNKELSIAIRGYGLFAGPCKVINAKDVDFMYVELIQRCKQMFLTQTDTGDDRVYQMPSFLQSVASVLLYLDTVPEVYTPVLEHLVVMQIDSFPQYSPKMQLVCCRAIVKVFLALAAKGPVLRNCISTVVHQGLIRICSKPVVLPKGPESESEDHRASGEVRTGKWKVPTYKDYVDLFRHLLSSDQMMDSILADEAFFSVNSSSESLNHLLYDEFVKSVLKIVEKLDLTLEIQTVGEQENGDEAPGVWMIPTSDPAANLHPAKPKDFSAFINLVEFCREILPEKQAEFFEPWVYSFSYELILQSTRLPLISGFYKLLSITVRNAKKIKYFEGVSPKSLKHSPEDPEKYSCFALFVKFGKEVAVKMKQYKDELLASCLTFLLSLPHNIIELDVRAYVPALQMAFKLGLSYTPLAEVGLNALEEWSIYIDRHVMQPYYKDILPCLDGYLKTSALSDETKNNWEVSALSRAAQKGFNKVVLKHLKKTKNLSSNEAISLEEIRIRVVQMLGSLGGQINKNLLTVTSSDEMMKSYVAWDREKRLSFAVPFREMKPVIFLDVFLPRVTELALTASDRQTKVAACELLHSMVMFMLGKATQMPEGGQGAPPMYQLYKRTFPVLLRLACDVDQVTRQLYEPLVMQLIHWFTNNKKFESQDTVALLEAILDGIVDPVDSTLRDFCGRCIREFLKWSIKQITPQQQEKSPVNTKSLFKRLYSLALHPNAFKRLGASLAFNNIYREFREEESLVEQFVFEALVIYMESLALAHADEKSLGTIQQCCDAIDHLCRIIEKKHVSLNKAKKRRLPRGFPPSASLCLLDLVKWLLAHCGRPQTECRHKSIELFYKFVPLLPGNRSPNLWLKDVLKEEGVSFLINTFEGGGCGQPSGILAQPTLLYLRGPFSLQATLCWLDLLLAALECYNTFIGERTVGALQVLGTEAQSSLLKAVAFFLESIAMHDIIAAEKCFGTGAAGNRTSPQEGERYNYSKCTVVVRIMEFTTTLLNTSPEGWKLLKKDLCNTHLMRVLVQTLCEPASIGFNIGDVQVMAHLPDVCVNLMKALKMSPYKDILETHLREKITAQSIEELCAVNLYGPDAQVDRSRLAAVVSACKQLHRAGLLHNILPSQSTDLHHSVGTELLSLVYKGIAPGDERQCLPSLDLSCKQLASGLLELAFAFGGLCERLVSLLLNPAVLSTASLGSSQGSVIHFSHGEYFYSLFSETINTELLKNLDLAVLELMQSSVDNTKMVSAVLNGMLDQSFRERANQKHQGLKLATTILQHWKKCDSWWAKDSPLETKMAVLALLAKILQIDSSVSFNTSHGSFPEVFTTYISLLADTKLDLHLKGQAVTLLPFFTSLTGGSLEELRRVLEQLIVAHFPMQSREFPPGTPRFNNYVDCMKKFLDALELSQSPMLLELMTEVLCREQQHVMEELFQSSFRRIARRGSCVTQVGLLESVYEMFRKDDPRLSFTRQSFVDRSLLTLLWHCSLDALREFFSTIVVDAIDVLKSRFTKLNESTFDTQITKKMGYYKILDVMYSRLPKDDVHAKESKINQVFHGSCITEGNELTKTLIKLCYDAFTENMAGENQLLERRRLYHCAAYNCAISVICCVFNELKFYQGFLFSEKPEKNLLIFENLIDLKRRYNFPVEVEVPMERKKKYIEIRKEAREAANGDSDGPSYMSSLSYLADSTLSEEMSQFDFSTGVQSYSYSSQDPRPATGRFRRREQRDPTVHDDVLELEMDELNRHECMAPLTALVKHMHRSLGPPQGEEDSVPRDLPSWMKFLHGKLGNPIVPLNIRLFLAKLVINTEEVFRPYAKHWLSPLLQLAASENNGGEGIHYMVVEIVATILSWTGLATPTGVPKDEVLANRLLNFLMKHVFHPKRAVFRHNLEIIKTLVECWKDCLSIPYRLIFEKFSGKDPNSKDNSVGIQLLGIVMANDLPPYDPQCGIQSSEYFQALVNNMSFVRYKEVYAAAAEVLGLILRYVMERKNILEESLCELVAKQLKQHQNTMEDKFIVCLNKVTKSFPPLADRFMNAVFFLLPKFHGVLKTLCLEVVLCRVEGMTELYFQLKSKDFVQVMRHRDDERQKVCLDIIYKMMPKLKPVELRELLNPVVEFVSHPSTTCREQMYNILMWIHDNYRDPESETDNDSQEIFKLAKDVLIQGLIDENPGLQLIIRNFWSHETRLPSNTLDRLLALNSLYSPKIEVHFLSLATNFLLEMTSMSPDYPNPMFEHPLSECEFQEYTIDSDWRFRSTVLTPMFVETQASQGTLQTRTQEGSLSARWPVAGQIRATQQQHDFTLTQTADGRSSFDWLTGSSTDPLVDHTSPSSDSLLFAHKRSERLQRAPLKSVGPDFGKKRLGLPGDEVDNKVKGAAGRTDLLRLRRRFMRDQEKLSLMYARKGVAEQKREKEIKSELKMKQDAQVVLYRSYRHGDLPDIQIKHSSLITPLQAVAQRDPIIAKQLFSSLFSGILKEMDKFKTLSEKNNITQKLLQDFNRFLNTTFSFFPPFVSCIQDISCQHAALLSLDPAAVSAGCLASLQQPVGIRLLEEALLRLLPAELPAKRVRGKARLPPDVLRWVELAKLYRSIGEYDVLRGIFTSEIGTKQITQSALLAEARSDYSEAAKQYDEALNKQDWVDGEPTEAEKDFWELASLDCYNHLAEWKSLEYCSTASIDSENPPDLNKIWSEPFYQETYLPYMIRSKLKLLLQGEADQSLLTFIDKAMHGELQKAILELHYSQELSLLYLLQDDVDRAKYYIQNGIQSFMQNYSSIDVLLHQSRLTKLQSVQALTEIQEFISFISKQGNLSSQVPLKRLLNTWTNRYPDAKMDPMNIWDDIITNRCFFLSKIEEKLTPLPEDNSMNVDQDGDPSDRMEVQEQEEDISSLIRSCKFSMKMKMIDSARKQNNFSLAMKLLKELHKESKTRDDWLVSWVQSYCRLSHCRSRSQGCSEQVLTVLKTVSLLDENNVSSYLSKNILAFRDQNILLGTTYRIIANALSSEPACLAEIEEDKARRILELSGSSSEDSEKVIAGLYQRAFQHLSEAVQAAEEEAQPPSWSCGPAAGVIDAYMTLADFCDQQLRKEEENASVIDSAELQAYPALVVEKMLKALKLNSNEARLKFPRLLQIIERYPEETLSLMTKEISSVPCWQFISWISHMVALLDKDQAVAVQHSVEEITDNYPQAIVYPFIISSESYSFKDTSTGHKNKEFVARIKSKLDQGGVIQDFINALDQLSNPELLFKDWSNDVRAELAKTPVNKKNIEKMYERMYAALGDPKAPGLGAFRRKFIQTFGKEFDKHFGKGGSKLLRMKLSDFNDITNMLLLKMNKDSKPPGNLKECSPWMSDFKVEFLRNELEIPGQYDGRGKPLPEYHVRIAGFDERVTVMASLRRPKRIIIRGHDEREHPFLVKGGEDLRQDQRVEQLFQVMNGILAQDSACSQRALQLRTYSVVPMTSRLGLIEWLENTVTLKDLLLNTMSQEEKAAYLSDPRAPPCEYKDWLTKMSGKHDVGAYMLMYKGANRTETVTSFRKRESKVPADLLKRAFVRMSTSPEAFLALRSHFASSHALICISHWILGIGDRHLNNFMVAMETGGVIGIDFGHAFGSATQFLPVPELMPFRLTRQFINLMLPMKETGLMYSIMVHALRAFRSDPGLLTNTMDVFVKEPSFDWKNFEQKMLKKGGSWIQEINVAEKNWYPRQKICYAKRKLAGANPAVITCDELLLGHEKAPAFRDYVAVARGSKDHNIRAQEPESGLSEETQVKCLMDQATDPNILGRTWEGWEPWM

For orientation: inhibition means the share of the control response that was lost under treatment. For `CS(=O)(=O)Nc1ccccc1Nc1nc(Nc2cccc(OCCN)c2)ncc1Cl` [CZC31326, N-(2-(2-(3-(2-aminoethoxy)phenylamino)-5-chloropyrimidin-4-ylamino)phenyl)methanesulfonamide], the inhibition at 10 µM on MAP3K4 came to 92.2%; on CK2a1 it was 94.6%; at BIKE it was 92.9%; at TBK1, 93.8%; at LYN, 76.1%; on MAP2K1, 83.7%. Moreover, the results for the inhibition at 10 µM at DNAPK, on GSK3A and at MAP2K6 were 69.2%, 93.7% and 89.2%, respectively.
